Data taken from article PMC7991022, “Optimization of extracellular ethanol-tolerant β-glucosidase production from a newly isolated Aspergillus sp. DHE7 via solid state fermentation using jojoba meal as substrate: purification and biochemical characterization for biofuel preparation” (Journal of Genetic Engineering & Biotechnology, 2021).

Test system: T1, Aspergillus sp. DHE7 β-glucosidase
T1 construct: gene beta-D-glucosidase; native extracellular enzyme purified from solid-state culture (jojoba meal): ethanol precipitation, DEAE-Sephadex A-50, Sephadex G-100; monomer, 135 kDa by SDS-PAGE
Assay: p-nitrophenol release at […] nm, Lineweaver-Burk plot
Format: biochemical
Conditions: pH 6.0, 60 °C, 50 mM Na-citrate; 0.25 to 20 mM substrate; apparent Km

Km: 400 µM
SMILES: O=[N+]([O-])c1ccc(O[C@@H]2O[C@H](CO)[C@@H](O)[C@H](O)[C@H]2O)cc1 [p-nitrophenyl-β-D-glucopyranoside]
